Where two headings read alike, the source gives them in different places.
Key:
Assay type in all cases: in vivo
Chenopodium album = assay: Test Example 4: herbicidal effect test by stem and leaf treatment in upland field; details: 120 g per 10 ares, sprayed seven days after sowing, upland soil, 14 days after application, read-out: weed inhibition rate
[1] = test system: Echinochloa crus-galli var. formosensis at the three-leaf stage; assay: Comparative Example: herbicidal effect test by application during growth period of paddy rice (three-leaf stage, Table 7); details: 504 h, active ingredient 7.5 g per 10 ares, emulsifiable concentrate applied by dropper to flooded pots, 21 days after chemical application, triplicate, read-out: Weed inhibition rate (%)
Description: As an example, the herbicidal effect on Echinochloa crus-galli var. formosensis at the three-leaf stage was confirmed by the following method, and the results are specifically shown in Table 7 as a comparative example.
Wagner pots with an area of […] were filled with paddy soil, followed by addition of water and incorporation of chemical fertilizer (N:P:K = 16:16:16), after which puddling was performed. After that, 30 seeds of Echinochloa crus-galli var. formosensis were sown at a depth of 0 cm to 1 cm. Immediately after sowing, the pots were flooded and a water depth of approximately 3 cm was maintained. Subsequent management was conducted in a glass greenhouse. When Echinochloa crus-galli var. formosensis reached the three-leaf stage, an emulsifiable concentrate prepared according to Formulation Example 5 using the compound shown below was diluted with water, and a specified amount of the diluted solution was applied by dropper. The amount of the active ingredient to be applied was equivalent to 7.5 g per 10 ares. The test was conducted in triplicate for each chemical concentration group, and the weed inhibition rate (%) was determined 21 days after chemical application using the following formula (Math. 1).

Lindernia pyxidaria [2] = assay: Test Example 1: herbicidal effect test by soil application in paddy rice; details: 336 h, 120 g active ingredient per 10 ares, applied immediately after sowing, flooded pots, 14 days after application, read-out: weed inhibition rate
In short: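 Inhibition rate (%) read 14 days after treatment, duplicate pots. Water-diluted emulsifiable concentrate was applied by dropper at 120 g active ingredient/10 ares right after sowing. Seeds (30 per species, 0–1 cm deep) went into puddled paddy soil kept flooded at about 3 cm in a greenhouse.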

Amaranthus viridis [3] = assay: Test Example 7: herbicidal effect test by soil application in upland field (low dose); details: read-out: weed inhibition rate
Lindernia pyxidaria [4] = assay: Test Example 2: herbicidal effect test by application during growth period of paddy rice; details: 120 g per 10 ares, applied seven days after sowing, flooded pots, 14 days after application, read-out: weed inhibition rate
In short: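 Flooded paddy pot test, greenhouse. Seeds 30/species, 0–1 cm depth, water ~3 cm. EC diluted in water, dropper-applied 7 d post-sowing at 120 g a.i./10 a. Inhibition rate (%) read 14 d after treatment; n=2.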

Lindernia pyxidaria [5] = assay: Test Example 5: herbicidal effect test by soil application in paddy rice (low dose); details: 336 h, 7.5 g per 10 ares, applied immediately after sowing, flooded pots, 14 days after application, read-out: weed inhibition rate
In short: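 Pre-emergence paddy test: seeds sown 0–1 cm (30 each), pots flooded ~3 cm, greenhouse. EC dilution dropped into water right after sowing, 7.5 g a.i./10 a. Duplicate pots; weed inhibition rate (%) by formula, day 14.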

Amaranthus viridis [6] = assay: Test Example 4: herbicidal effect test by stem and leaf treatment in upland field; details: 120 g per 10 ares, sprayed seven days after sowing, upland soil, 14 days after application, read-out: weed inhibition rate
In short: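 Read-out: weed inhibition rate (%), calculated 14 days post-application, each concentration group in duplicate. Treatment was a spray of diluted emulsifiable concentrate (100 liters per 10 ares; 120 g a.i. per 10 ares) onto pots sown 7 days earlier in alluvial loam.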

[7] = 7.5 g per 10 ares, sprayed one day after sowing, upland soil, 14 days after application

SMILES	inhibition at 75 g/ha [1] [%]	pest or weed control at 1200 g/ha (Lindernia pyxidaria [2]) [%]	inhibition at 1200 g/ha (Lindernia pyxidaria [4]) [%]	further results
CC(C)[C@]12C[C@@H](OCc3ccccc3F)[C@](C)(C[C@@H]1F)O2 [1-5, (1R,2S,4S,5R)-2-fluoro-5-((2-fluorobenzyl)oxy)-1-isopropyl-4-methyl-7-oxabicyclo[2.2.1]heptane]	100	–	–	inhibition at 1200 g/ha (Chenopodium album): ≥ 80%
CC(C)[C@]12C[C@@H](OCc3c(F)cccc3F)[C@](C)(C[C@@H]1F)O2 [1-7, (1S,2R,4R,5S)-2-((2,6-difluorobenzyl)oxy)-5-fluoro-4-isopropyl-1-methyl-7-oxabicyclo[2.2.1]heptane]	100	≥ 80	–	inhibition at 1200 g/ha (Chenopodium album): ≥ 80%; inhibition at 75 g/ha (Amaranthus viridis [3]; [7]): ≥ 80%
CC(C)[C@]12C[C@@H](OCc3ccccc3)[C@](C)(C[C@@H]1Br)O2 [1-15, (1S,2R,4R,5S)-5-bromo-1-methyl-2-phenylmethoxy-4-isopropyl-7-oxabicyclo[2.2.1]heptane]	80	–	–	–
Cc1ccccc1CO[C@@H]1C[C@]2(C(C)C)O[C@@]1(C)C[C@@H]2Br [1-16, (1S,2R,4R,5S)-5-bromo-1-methyl-2-[(2-methylphenyl)methoxy]-4-isopropyl-7-oxabicyclo[2.2.1]heptane]	–	≥ 80	–	–
CC(C)[C@]12C[C@@H](OCc3ccccc3F)[C@](C)(C[C@@H]1Br)O2 [1-19, (1S,2R,4R,5S)-5-bromo-2-[(2-fluorophenyl)methoxy]-1-methyl-4-isopropyl-7-oxabicyclo[2.2.1]heptane]	88	≥ 80	≥ 80	inhibition at 1200 g/ha (Chenopodium album): ≥ 80%
CC(C)[C@]12C[C@@H](OCc3c(F)cccc3F)[C@](C)(C[C@@H]1Br)O2 [1-21, (1S,2R,4R,5S)-5-bromo-2-[(2,6-difluorophenyl)methoxy]-1-methyl-4-isopropyl-7-oxabicyclo[2.2.1]heptane]	93	–	–	–
Cc1ccccc1CO[C@@H]1C[C@]2(C(C)C)O[C@@]1(C)CC2C (stereo partly drawn) [1-83, (1S,2R,4R)-4-isopropyl-1,5-dimethyl-2-((2-methylbenzyl)oxy)-7-oxabicyclo[2.2.1]heptane]	99	–	–	inhibition at 1200 g/ha (Chenopodium album): ≥ 80%
CC(C)[C@]12C[C@@H](OCc3c(F)cccc3F)[C@](C)(CC1C)O2 (stereo partly drawn) [1-111, (1S,2R,4R)-2-((2,6-difluorobenzyl)oxy)-4-isopropyl-1,5-dimethyl-7-oxabicyclo[2.2.1]heptane]	100	–	–	–
CCC1C[C@]2(C)O[C@@]1(C(C)C)C[C@H]2OCc1ccccc1F (stereo partly drawn) [1-126, (1R,4S,5R)-2-ethyl-5-[(2-fluorobenzyl)oxy]-1-isopropyl-4-methyl-7-oxabicyclo[2.2.1]heptane]	100	–	–	–
CCO[C@H]1C[C@]2(C)O[C@@]1(C(C)C)C[C@H]2OCc1ccccc1F [1-183, (1S,2R,4R,5S)-5-ethoxy-2-[(2-fluorophenyl)methoxy]-1-methyl-4-isopropyl-7-oxabicyclo[2.2.1]heptane]	93	–	–	–
CC(C)[C@]12C[C@@H](OCc3ccccc3F)[C@](C)(C[C@@H]1OCc1ccccc1F)O2 [1-603, (1S,2R,4R,5S)-2,5-bis[(2-fluorophenyl)methoxy]-1-methyl-4-isopropyl-7-oxabicyclo[2.2.1]heptane]	–	≥ 80	–	inhibition at 1200 g/ha (Chenopodium album): ≥ 80%; inhibition at 75 g/ha (Lindernia pyxidaria [5]): ≥ 80%
CC(C)=CCO[C@@H]1C[C@]2(C(C)C)O[C@@]1(C)C[C@@H]2Br [1-672, (1S,2R,4R,5S)-5-bromo-1-methyl-2-(3-methylbut-2-enoxy)-4-isopropyl-7-oxabicyclo[2.2.1]heptane]	–	–	≥ 80	–
CC(C)[C@]12C[C@@H](OCc3ccccc3Br)[C@](C)(C[C@@H]1Br)O2 [1-694, (1S,2R,4R,5S)-5-bromo-2-[(2-bromophenyl)methoxy]-1-methyl-4-isopropyl-7-oxabicyclo[2.2.1]heptane]	–	–	–	inhibition at 75 g/ha (Amaranthus viridis [3]; [7]): ≥ 80%
CC(C)[C@]12C[C@@H](OCc3ccccc3C#N)[C@](C)(C[C@@H]1Br)O2 [1-703, 2-[[(1S,2R,4R,5S)-5-bromo-1-methyl-4-isopropyl-7-oxabicyclo[2.2.1]heptan-2-yl]oxymethyl]benzonitrile]	–	≥ 80	≥ 80	–
Cc1ccccc1CO[C@@H]1C[C@]2(C(C)C)O[C@@]1(C)C[C@@H]2I [1-741, (1S,2R,4R,5S)-5-iodo-1-methyl-2-[(2-methylphenyl)methoxy]-4-isopropyl-7-oxabicyclo[2.2.1]heptane]	–	≥ 80	–	inhibition at 75 g/ha (Lindernia pyxidaria [5]): ≥ 80%
CC(C)[C@]12C[C@@H](OCc3ccccc3F)[C@](C)(C[C@@H]1I)O2 [1-753, (1S,2R,4R,SS)-2-[(2-fluorophenyl)methoxy]-5-iodo-1-methyl-4-isopropyl-7-oxabicyclo[2.2.1]heptane]	93	–	–	inhibition at 75 g/ha (Amaranthus viridis [3]; soil): ≥ 80%
COC1(OC)C[C@]2(C)O[C@@]1(C(C)C)C[C@H]2OCc1ccccc1F [1-935, (1R,4S,5R)-5-((2-fluorobenzyl)oxy)-1-isopropyl-2,2-dimethoxy-4-methyl-7-oxabicyclo[2.2.1]heptane]	–	≥ 80	≥ 80	–
C=CCO[C@H]1C[C@]2(C)O[C@@]1(C(C)C)C[C@H]2OCc1ccccc1F [1-1602, (1S,2R,4R,5S)-2-[(2-fluorophenyl)methoxy]-1-methyl-4-isopropyl-5-prop-2-enoxy-7-oxabicyclo[2.2.1]heptane]	82	–	–	–
Cc1ccccc1CO[C@@H]1C[C@]2(C(C)C)O[C@@]1(C)CC2=O [2-3, (1R,4S,5R)-1-isopropyl-4-methyl-5-((2-methylbenzyl)oxy)-7-oxabicyclo[2.2.1]heptan-2-one]	–	≥ 80	≥ 80	inhibition at 1200 g/ha (Chenopodium album): ≥ 80%
Cc1cccc(C)c1CO[C@@H]1C[C@]2(C(C)C)O[C@@]1(C)CC2=O [2-5, (1R,4S,5R)-5-((2,6-dimethylbenzyl)oxy)-1-isopropyl-4-methyl-7-oxabicyclo[2.2.1]heptan-2-one]	–	≥ 80	≥ 80	inhibition at 75 g/ha (Lindernia pyxidaria [5]): ≥ 80%
CC(C)[C@]12C[C@@H](OCc3ccccc3Cl)[C@](C)(CC1=O)O2 [2-11, (1R,4S,5R)-5-((2-chlorobenzyl)oxy)-1-isopropyl-4-methyl-7-oxabicyclo[2.2.1]heptan-2-one]	–	–	≥ 80	–
CC(C)[C@]12C[C@@H](OCc3c(F)cccc3F)[C@](C)(CC1=O)O2 [2-20, (1R,4S,5R)-5-((2,6-difluorobenzyl)oxy)-1-isopropyl-4-methyl-7-oxabicyclo[2.2.1]heptan-2-one]	–	–	≥ 80	inhibition at 1200 g/ha (Amaranthus viridis [6]): ≥ 80%; inhibition at 75 g/ha (Lindernia pyxidaria [5]): ≥ 80%
Cc1ccccc1CO[C@@H]1C[C@]2(C(C)C)O[C@@]1(C)C/C2=N\O [2-191, (1R,4S,5R,E)-1-isopropyl-4-methyl-5-((2-methylbenzyl)oxy)-7-oxabicyclo[2.2.1]heptan-2-one oxime]	–	–	–	inhibition at 1200 g/ha (Amaranthus viridis [6]): ≥ 80%
CC(C)[C@]12C[C@@H](OCc3ccccc3F)[C@](C)(C/C1=N\O)O2 [2-197, (1R,4S,5R,E)-5-((2-fluorobenzyl)oxy)-1-isopropyl-4-methyl-7-oxabicyclo[2.2.1]heptan-2-one oxime]	–	≥ 80	–	inhibition at 1200 g/ha (Amaranthus viridis [6]): ≥ 80%
CC(C)[C@]12C[C@@H](OCc3ccc(F)cc3)[C@](C)(CC1=O)O2 [2-349, (1R,4S,5R)-5-((4-fluorobenzyl)oxy)-1-isopropyl-4-methyl-7-oxabicyclo[2.2.1]heptan-2-one]	–	≥ 80	≥ 80	inhibition at 1200 g/ha (Amaranthus viridis [6]): ≥ 80%
CC(C)[C@]12C[C@@H](OCc3cccc(F)c3)[C@](C)(CC1=O)O2 [2-351, (1R,4S,5R)-5-((3-fluorobenzyl)oxy)-1-isopropyl-4-methyl-7-oxabicyclo[2.2.1]heptan-2-one]	–	≥ 80	≥ 80	inhibition at 1200 g/ha (Chenopodium album): ≥ 80%
Cc1ccccc1CO[C@@H]1C[C@@]2(C(C)C)C=C[C@]1(C)O2 [3-2, (1R,4S,5R)-4-methyl-5-[(2-methylphenyl)methoxy]-1-isopropyl-7-oxabicyclo[2.2.1]hept-2-ene]	–	–	–	inhibition at 75 g/ha (Amaranthus viridis [3]; [7]): ≥ 80%

Reference: patent EP4707280A1, “1,4-CINEOLE DERIVATIVE AND INTERMEDIATE THEREOF, HERBICIDE CONTAINING SAID DERIVATIVE AS ACTIVE INGREDIENT, METHOD FOR USING HERBICIDE, AND METHOD FOR PREPARING AGROCHEMICAL COMPOSITION” (HOKKO CHEMICAL INDUSTRY CO., LTD., priority 2023, dated 2024)
